Some test systems named below: MOLT-4 leukemia; SR leukemia; LOX IMVI melanoma; RXF 393 renal; OVCAR-8 ovarian; OVCAR-4 ovarian; 786-0 renal; SK-MEL-2 melanoma.
Holding throughout (test): growth of human tumour cells (NCI), 48 h

These results are taken from PubChem BioAssay (NCI).

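Results reflect a 48-hour exposure of cells in 96-well plates to compound at five concentrations. GI50 marks 50% less growth. Definition used: TGI = concentration required for complete inhibition of growth.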

As for `c1cc(OCCN2CCCCCC2)ccc1CNc1ccc2nc(CCC3CCCCC3)[nH]c2c1`, the GI50 in the experiment with MOLT-4 leukemia was 1.69 µM; in the experiment with SR leukemia it was 1.73 µM; in the experiment with LOX IMVI melanoma, 1.74 µM; with RXF 393 renal, 1.53 µM; in the experiment with OVCAR-8 ovarian, 2.27 µM; in the experiment with OVCAR-4 ovarian it was 3.2 µM. Also, the GI50 in the experiment on 786-0 renal is 1.6 µM; in the experiment with SK-MEL-2 melanoma it was 1.88 µM. Moreover, the TGI with MOLT-4 leukemia worked out at 6.74 µM; with SR leukemia it was 5.34 µM; in the experiment with LOX IMVI melanoma it was 3.2 µM; in the experiment on RXF 393 renal, 4.4 µM; in the experiment with OVCAR-8 ovarian, 6.34 µM; in the experiment on OVCAR-4 ovarian it was 13.8 µM. The TGI came out at 3.29 µM in the experiment on 786-0 renal and 3.63 µM in the experiment on SK-MEL-2 melanoma.

For the compound `CCCCCCCC/C=C/CCCCCCCC1=NC(C)(C)CN1C(C)C`, the GI50 with SR leukemia is 1.02 µM; in the experiment with RXF 393 renal, 1.58 µM; in the experiment on OVCAR-4 ovarian it was 1.63 µM; in the experiment on 786-0 renal, 1.58 µM. Moreover, the TGI came to 2.42 µM in the experiment on SR leukemia, 3.04 µM with RXF 393 renal, 2.98 µM in the experiment on OVCAR-4 ovarian and 2.93 µM with 786-0 renal.

In the case of `COc1ccc(-c2cnc3ccnn3c2-c2cc(OC)c(OC)c(OC)c2)cc1`, the GI50 is 4.62 µM with MOLT-4 leukemia; 1.66 µM in the experiment with SR leukemia; 5.96 µM in the experiment on LOX IMVI melanoma; 2.6 µM in the experiment on RXF 393 renal; 7.25 µM with OVCAR-8 ovarian; 9.69 µM in the experiment with OVCAR-4 ovarian. Further, the GI50 in the experiment on 786-0 renal was 4.31 µM; in the experiment with SK-MEL-2 melanoma it was 3.94 µM. The TGI in the experiment with MOLT-4 leukemia, with SR leukemia, with LOX IMVI melanoma, in the experiment with RXF 393 renal, in the experiment on OVCAR-8 ovarian and with OVCAR-4 ovarian was above 100 µM throughout. Further, the TGI in the experiment on 786-0 renal and in the experiment on SK-MEL-2 melanoma was above 100 µM each time.

As for `CCOC(=O)c1c(-c2ccccc2)[n+](=O)c2ccc(Cl)cc2n1[O-]`, the GI50 in the experiment on MOLT-4 leukemia is 4.93 µM; in the experiment with SR leukemia it was 2.59 µM; with LOX IMVI melanoma, 1.66 µM; in the experiment on RXF 393 renal, 19.3 µM; in the experiment on OVCAR-8 ovarian, 4.46 µM; with OVCAR-4 ovarian it was 4.25 µM. Also, the GI50 with 786-0 renal is 6.98 µM; in the experiment with SK-MEL-2 melanoma, 40 µM. Also, the TGI stood at 45.6 µM with MOLT-4 leukemia; 11 µM in the experiment with SR leukemia; 3.91 µM in the experiment on LOX IMVI melanoma; 49.5 µM in the experiment on RXF 393 renal; 16.8 µM in the experiment on OVCAR-8 ovarian; 22.9 µM with OVCAR-4 ovarian. Further, the values for the TGI in the experiment with 786-0 renal and in the experiment on SK-MEL-2 melanoma were 19.9 µM and above 100 µM, respectively.

`O=C1/C(=C\C(Cl)=C/c2ccc([N+](=O)[O-])cc2)SC(=S)N1CCc1ccc(O)cc1`: the GI50 with MOLT-4 leukemia was 0.352 µM; with SR leukemia, 0.327 µM; with LOX IMVI melanoma it was 0.187 µM; in the experiment with RXF 393 renal, 0.472 µM; in the experiment with OVCAR-8 ovarian, 0.414 µM; in the experiment on OVCAR-4 ovarian, 0.496 µM. Moreover, the figures for the GI50 with 786-0 renal and in the experiment on SK-MEL-2 melanoma were 0.255 µM and 2.01 µM, respectively. Also, the TGI in the experiment with MOLT-4 leukemia was above 100 µM; in the experiment on LOX IMVI melanoma, 0.387 µM; in the experiment with RXF 393 renal, 1.11 µM; in the experiment with OVCAR-8 ovarian, 4.2 µM; with OVCAR-4 ovarian, 1.8 µM; with 786-0 renal, 0.707 µM. The TGI in the experiment on SK-MEL-2 melanoma turned out to be 4.37 µM.

Turning to `Cn1cccc1-c1cc(-c2cccs2)[nH]c(=O)c1C#N`, the GI50 in the experiment on MOLT-4 leukemia, with SR leukemia, in the experiment on LOX IMVI melanoma, with RXF 393 renal, in the experiment with OVCAR-8 ovarian and in the experiment on OVCAR-4 ovarian was above 100 µM in each case. Further, the GI50 in the experiment on 786-0 renal and in the experiment on SK-MEL-2 melanoma was above 100 µM each time. The TGI in the experiment with MOLT-4 leukemia, in the experiment on SR leukemia, in the experiment on LOX IMVI melanoma, in the experiment on RXF 393 renal, with OVCAR-8 ovarian and with OVCAR-4 ovarian was above 100 µM in each case. Also, the TGI in the experiment with 786-0 renal and in the experiment on SK-MEL-2 melanoma was above 100 µM each time.

As for `O=C(Nc1nccs1)c1cc2c(cc1Cl)Sc1nccn1S2(=O)=O`, the GI50 with MOLT-4 leukemia is 19.1 µM; with SR leukemia, 3 µM; with LOX IMVI melanoma, 10.9 µM; in the experiment with RXF 393 renal it was 18.9 µM; with OVCAR-8 ovarian, 17.2 µM; with OVCAR-4 ovarian, 16.4 µM. For the same compound, the results for the GI50 in the experiment on 786-0 renal and in the experiment on SK-MEL-2 melanoma were 16 µM and 17.4 µM, respectively. Moreover, the TGI in the experiment with MOLT-4 leukemia is 42.1 µM; in the experiment on SR leukemia, 11.9 µM; in the experiment on LOX IMVI melanoma, 25.6 µM; in the experiment on RXF 393 renal, 39.7 µM; in the experiment on OVCAR-8 ovarian, 37.1 µM; in the experiment with OVCAR-4 ovarian, 38.6 µM. The values for the TGI in the experiment with 786-0 renal and with SK-MEL-2 melanoma were 29.4 µM and 33.1 µM, respectively.

Regarding `CN(C)CCCN(c1nc(C(Cl)(Cl)Cl)ns1)c1nc(C(Cl)(Cl)Cl)ns1`, the GI50 in the experiment on MOLT-4 leukemia was 1.93 µM; with SR leukemia, 1.49 µM; with LOX IMVI melanoma it was 1.58 µM; in the experiment with RXF 393 renal it was 1.81 µM; with OVCAR-8 ovarian, 1.77 µM; with OVCAR-4 ovarian it was 2.21 µM. Also, the figures for the GI50 in the experiment on 786-0 renal and with SK-MEL-2 melanoma were 1.72 µM and 1.84 µM, respectively. The TGI in the experiment with MOLT-4 leukemia amounted to 4.23 µM; with SR leukemia, 3.53 µM; in the experiment on LOX IMVI melanoma, 3.01 µM; in the experiment on RXF 393 renal, 3.21 µM; with OVCAR-8 ovarian it was 3.52 µM; with OVCAR-4 ovarian, 5.58 µM. The TGI stood at 3.3 µM in the experiment with 786-0 renal and 3.5 µM in the experiment on SK-MEL-2 melanoma.

Regarding `Cn1ncc2c(/N=C/c3cccs3)[nH]c(=S)nc21`, the GI50 with MOLT-4 leukemia was 44.1 µM; in the experiment on LOX IMVI melanoma, 36.4 µM; in the experiment with RXF 393 renal, 26.2 µM; in the experiment with OVCAR-8 ovarian, 57.5 µM; with OVCAR-4 ovarian, above 59 µM; with 786-0 renal, 60.1 µM. Moreover, the GI50 in the experiment on SK-MEL-2 melanoma was above 64.5 µM. Moreover, the TGI with MOLT-4 leukemia was above 100 µM; in the experiment on LOX IMVI melanoma, above 100 µM; in the experiment on RXF 393 renal it was above 73.3 µM; with OVCAR-8 ovarian it was above 100 µM; in the experiment on OVCAR-4 ovarian, above 100 µM; in the experiment with 786-0 renal it was above 100 µM. In the experiment on SK-MEL-2 melanoma, this compound came in with a TGI above 100 µM.

Consider `Cc1c2c(nn1C(=O)c1nn(-c3ccc(Cl)cc3)cc1O)-c1ccccc1CC2`, for which the GI50 is 0.0415 µM in the experiment on MOLT-4 leukemia; 0.0722 µM with LOX IMVI melanoma; 0.0441 µM in the experiment on RXF 393 renal; 0.0523 µM in the experiment on OVCAR-8 ovarian; 0.246 µM in the experiment on OVCAR-4 ovarian; 0.319 µM with 786-0 renal. In addition, the GI50 in the experiment with SK-MEL-2 melanoma is 55.4 µM. Moreover, the TGI in the experiment on MOLT-4 leukemia was above 39.5 µM; in the experiment with LOX IMVI melanoma, above 100 µM; in the experiment on RXF 393 renal it was above 42.8 µM; with OVCAR-8 ovarian, above 100 µM; in the experiment on OVCAR-4 ovarian it was above 100 µM; with 786-0 renal, above 64.1 µM. The compound also showed a TGI in the experiment on SK-MEL-2 melanoma above 100 µM.
